Paper PMC11062894, “Protein-based bandpass filters for controlling cellular signaling with chemical inputs” (Nature Chemical Biology, 2023)
Values joined by “and” are separate entries in the source; they are usually repeats but may differ in a detail not shown here. Equal values may be shown once.

Tested on: GEMS receptors with CBPA11 (BclXL–LD3 and BclXLhigh variants), STAT3-driven SEAP in HEK293T cells
Experiment: GEMS SEAP reporter assay, CBPA11 (BclXLhigh, LD3-v and BclXL-v variants) with A-1155463
Type: cell-based
Set-up: key to Raw data (SEAP) / SEAP, replicate values / Raw data of Figure 5b / Raw data Figure 5e / Raw data of Independent repeat of CBPA11-v1 vs CBPA11-v1-LD3v3 / Raw data of Independent repeat of CBPA11-v3 vs CBPA11-v3-LD3v3 / Raw data of Figure 5b, CBPA11-v1-LD3v3 (SEAP reporter raw value, single replicate) / Raw data of Figure 5b, CBPA11-v1 (SEAP reporter raw value, single replicate): SEAP activity in U/L in culture supernatant
Settings: for Normalized data (SEAP) / Raw data (SEAP): SuppFigure 9c, LD3v3
Source text: To rationally design a CBP responding to a chemical input, we used BclXL as the druglow receptor, LD3 as the designed binder and a designed BclXL variant as the drughigh receptor (referred to as BclXLhigh) to construct a CBP responsive to BclXL inhibitors (Fig. 4a). To design BclXLhigh, we used a multistate design computational protocol described elsewhere[26] […] Thus, BclXLhigh-v(1–3) were chosen as the functional drughigh receptors, resulting in three A-1155463-controlled CBPs (referred to as CBPA11-v(1–3)) (Fig. 4c–e).
HEK293T cells were seeded in a 96-well plate 24 h before transfection. The transfection mix in each well consisted of 3 ng of constitutive human CMV promoter driven mammalian STAT3 expression vector (PhCMV-STAT3-pA), 30 ng of STAT3-induced reporter expression (OStat3-PhCMVmin-SEAP-pA) and 50 ng of expression vectors for each GEMS receptor chain (PSV40-IgK-(drughigh receptor)-EpoRm-IL-6RBm-pA and PSV40-IgK-(druglow receptor-GGGGSX3-LD3)-EpoRm-IL-6RBm-pA). For the specific drughigh receptor and druglow receptor used in the different cellular assays, they are indicated as wild type or with mutations. Then, plasmid DNA was mixed with 50 μl opti-MEM (Thermo Fisher) and 600 ng of polyethyleneimine (Polysciences, catalog no. 24765-1). For drug treatment experiments, drugs were added 12 h post-transfection and incubated with cells for 24 h before the SEAP reporter detection assay.
SEAP activity (U l^−1) in cell culture supernatants was quantified by kinetic measurements at 405 nm (1 minute per measurement for 30 cycles) of absorbance increase due to phosphatase-mediated hydrolysis of para-nitrophenyl phosphate (pNPP).
Binding affinities of SPR drug competition assays were calculated using three-parameter nonlinear regression in GraphPad Prism (v.8.3.0). Representative data of cell assays are presented as individual values and mean values (bars). n = 3 refers to biological replicates. All IC50 or EC50 values of cell assays reported were calculated using four-parameter nonlinear regression ± s.d. Bandpass features of cutoff concentrations and Bandwidth90% were estimated based on the curve fitted using bell-shaped curve nonlinear regression in GraphPad Prism (v.8.3.0). […]
Supplementary Figure 4: Design, screening and validation of BclXLhigh variants. a) Screening of BclXLhigh variants in the GEMS platform. […]
Dissociation constant measurement of BclXLhigh-v(1-3) and LD3. Equilibrium curves are fitted using […]
BclXLhigh-v1 (purple), BclXLhigh-v2 (blue), […]
a) Bcl2high-based bandpass filter designs were developed and to respond to different concentrations of […]
corresponding inhibitor. c) Screening of Bcl2high-based bandpass filter variants in the GEMS platform.
The designed binder LD3 was fused to the druglow-receptor (PSV40-IgK-Bcl2-LD3-EpoRm-IL-6RBm-pA) in one EpoR chain and Bcl2high variants with the insensitive Bcl2 (iBcl2) as control in the other EpoR chain (PSV40-IgK-Bcl2high-EpoRm-IL-6RBm-pA). HEK293T cells were transfected with indicated […]
the mean of six biological replicates ± s.d., overlaid with a scatter dot plot of the original data points.
(1 picture or pasted object on this page, not shown here)
Supplementary Figure 6: Binding affinities and drug resistances of Bcl2high-v(2,4,5) assessed by […]
a) Measurement of dissociation constants for Bcl2high-v(2,4,5) and LD3 interactions. Equilibrium curves […]
Bcl2high-v(2,4,5) measured by SPR. 5 μM of Bcl2 or indicated variants were mixed with 10 μM of […]
Bcl2high-v2 (red), Bcl2high-v4
Supplementary Figure 7: Screening of LD3 variants in CBPA11-v(1-3) and raw data of CBPA11-v(1,3) with LD3-v3 variant. a-c) Screening of LD3 and LD3-v(1-3) variants in complex with BclXL for more sensitive CBPA11-v1 (a), CBPA11-v2 (b), CBPA11-v3 (c) in the GEMS platform. The LD3 variants replaced the role of LD3 (PSV40-IgK-BclXL-LD3-v(1-3)-EpoRm-IL-6RBm-pA) in one EpoR chain and BclXLhigh-v(1-3) in the other EpoR chain (PSV40-IgK-BclXLhigh-V(1-3)-EpoRm-IL-6RBm-pA). HEK293T cells were transfected with […]

Structure (SMILES): CN(C)CC#Cc1ccc(OCCCc2sc(N3CCc4cccc(C(=O)Nc5nc6ccccc6s5)c4C3)nc2C(=O)O)c(F)c1 [A-1155463]
- Normalized data (SEAP) (A-1155463 10 nM): 57.1742
- Raw data (SEAP) (A-1155463 10 nM): 4.199
- Normalized data (SEAP) (A-1155463 31.6 nM): 64.0307
- Raw data (SEAP) (A-1155463 31.6 nM): 4.702
- Normalized data (SEAP) (A-1155463 100 nM): 100
- Raw data (SEAP) (A-1155463 100 nM): 7.344
- Normalized data (SEAP) (A-1155463 316 nM): 98.6857
- Raw data (SEAP) (A-1155463 316 nM): 7.247
- Normalized data (SEAP) (A-1155463 1000 nM): 76.9661
- Raw data (SEAP) (A-1155463 1000 nM): 5.652
- Normalized data (SEAP) (A-1155463 3160 nM): 98.598
- Raw data (SEAP) (A-1155463 3160 nM): 7.241
- Normalized data (SEAP) (A-1155463 10000 nM): 93.3297
- Raw data (SEAP) (A-1155463 10000 nM): 6.854
- SEAP, replicate values (Supplementary Figure 9e, CBPA11-v3-BclXLv2, A-1155463 1 nM): 84.4482 and 81.7463 and 104.541
- SEAP, replicate values (Supplementary Figure 9e, CBPA11-v3-BclXLv2, A-1155463 3.18 nM): 146.322 and 134.178 and 165.303
- SEAP, replicate values (Supplementary Figure 9e, CBPA11-v3-BclXLv2, A-1155463 10 nM): 324.719 and 293.474 and 344.378
- SEAP, replicate values (Supplementary Figure 9e, CBPA11-v3-BclXLv2, A-1155463 31.8 nM): 360.563 and 353.899 and 371.872
- SEAP, replicate values (Supplementary Figure 9e, CBPA11-v3-BclXLv2, A-1155463 100 nM): 397.777 and 391.029 and 415.369
- SEAP, replicate values (Supplementary Figure 9e, CBPA11-v3-BclXLv2, A-1155463 318 nM): 374.208 and 326.503 and 405.592
- SEAP, replicate values (Supplementary Figure 9e, CBPA11-v3-BclXLv2, A-1155463 1000 nM): 326.827 and 274.864 and 352.239
- SEAP, replicate values (Supplementary Figure 9e, CBPA11-v3-BclXLv2, A-1155463 3180 nM): 224.895 and 197.696 and 225.125
- SEAP, replicate values (Supplementary Figure 9e, CBPA11-v3, A-1155463 1 nM): 77.8998 and 72.2772 and 68.2722
- SEAP, replicate values (Supplementary Figure 9e, CBPA11-v3, A-1155463 3.18 nM): 101.26 and 74.5174 and 69.017
- SEAP, replicate values (Supplementary Figure 9e, CBPA11-v3, A-1155463 10 nM): 279.56 and 237.506 and 229.509
- SEAP, replicate values (Supplementary Figure 9e, CBPA11-v3, A-1155463 31.8 nM): 420.603 and 418.534 and 369.593
- SEAP, replicate values (Supplementary Figure 9e, CBPA11-v3, A-1155463 100 nM): 495.942 and 494.207 and 527.219
- SEAP, replicate values (Supplementary Figure 9e, CBPA11-v3, A-1155463 318 nM): 528.894 and 526.095 and 525.969
- SEAP, replicate values (Supplementary Figure 9e, CBPA11-v3, A-1155463 1000 nM): 429.812 and 444.52 and 449.13
- SEAP, replicate values (Supplementary Figure 9e, CBPA11-v3, A-1155463 3180 nM): 188.374
- SEAP, replicate values (Supplementary Figure 9d, CBPA11-v1-BclXLv2, A-1155463 1 nM): 111.205 and 87.5973 and 101.043
- SEAP, replicate values (Supplementary Figure 9d, CBPA11-v1-BclXLv2, A-1155463 3.18 nM): 157.154 and 178.429 and 193.635
- SEAP, replicate values (Supplementary Figure 9d, CBPA11-v1-BclXLv2, A-1155463 10 nM): 436.402 and 372.407 and 451.931
- SEAP, replicate values (Supplementary Figure 9d, CBPA11-v1-BclXLv2, A-1155463 31.8 nM): 433.431 and 447.679 and 460.586
- SEAP, replicate values (Supplementary Figure 9d, CBPA11-v1-BclXLv2, A-1155463 100 nM): 510.537 and 467.35 and 481.779
- SEAP, replicate values (Supplementary Figure 9d, CBPA11-v1-BclXLv2, A-1155463 318 nM): 466.109 and 461.812 and 531.315
- SEAP, replicate values (Supplementary Figure 9d, CBPA11-v1-BclXLv2, A-1155463 1000 nM): 444.141 and 425.472 and 444.224
- SEAP, replicate values (Supplementary Figure 9d, CBPA11-v1-BclXLv2, A-1155463 3180 nM): 353.967 and 340.947 and 373.905
- SEAP, replicate values (Supplementary Figure 9d, CBPA11-v1-BclXLv2, A-1155463 10000 nM): 194.487 and 169.62 and 189.065
- SEAP, replicate values (Supplementary Figure 9d, CBPA11-v1, A-1155463 1 nM): 63.0929 and 67.5149 and 84.3456
- SEAP, replicate values (Supplementary Figure 9d, CBPA11-v1, A-1155463 3.18 nM): 70.097 and 95.813 and 111.853
- SEAP, replicate values (Supplementary Figure 9d, CBPA11-v1, A-1155463 10 nM): 455.879 and 489.769 and 488.832
- SEAP, replicate values (Supplementary Figure 9d, CBPA11-v1, A-1155463 31.8 nM): 620.201 and 681.136 and 678.515
- SEAP, replicate values (Supplementary Figure 9d, CBPA11-v1, A-1155463 100 nM): 962.669 and 957.215 and 954.472
- SEAP, replicate values (Supplementary Figure 9d, CBPA11-v1, A-1155463 318 nM): 973.295 and 858.467 and 847.573
- SEAP, replicate values (Supplementary Figure 9d, CBPA11-v1, A-1155463 1000 nM): 855.269 and 763.206 and 684.986
- SEAP, replicate values (Supplementary Figure 9d, CBPA11-v1, A-1155463 3180 nM): 503.783 and 501.256 and 493.903
- SEAP, replicate values (Supplementary Figure 9d, CBPA11-v1, A-1155463 10000 nM): 194.615 and 191.032 and 215.159
